Patent EP0369391A2, “N-substituted amides” (BOEHRINGER INGELHEIM PHARMACEUTICALS INC., priority 1988, dated 1990)
Where “and” joins values, the source holds several entries; their conditions need not be identical. Equal entries are not always repeated. Where two headings read alike, the source gives them in different places.

Tests used:
[1] = molecular target: T1, human neutrophil elastase (HNE) (Homo sapiens, UniProt P08246); assay: Elastase Inhibition - Animal Model (acute hamster hemorrhage model); details: 20 ug i.t. compound, 50 µg HNE i.t., hemorrhage in lung lavage after 18 hours
T1 sequence (P08246 30-247 limits assumed): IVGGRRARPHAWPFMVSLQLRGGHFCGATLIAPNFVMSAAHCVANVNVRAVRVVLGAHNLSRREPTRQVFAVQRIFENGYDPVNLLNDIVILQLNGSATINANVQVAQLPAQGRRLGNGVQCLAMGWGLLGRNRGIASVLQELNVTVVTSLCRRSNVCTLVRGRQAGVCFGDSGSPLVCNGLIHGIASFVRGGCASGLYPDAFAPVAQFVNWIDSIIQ

[2] = molecular target: T2, Human sputum elastase ( HSE ) (Homo sapiens, UniProt P08246); assay: Elastase Inhibition - In Vitro Method (hydrolysis of MeO-Suc-Ala-Ala-Pro-Val-pNA, microtiter format); format: biochemical; details: for inhibition at 5 µg/mL: 5ug/mL compound; for IC50: 0.5 mM substrate, 15 minutes pre-incubation
T2 construct: Human sputum elastase ( HSE ) (Elasten Products Co., Pacific, Mo.); purchased Elasten Products Co., Pacific, Mo; host or cells: human sputum (by the name of the product)
T2 sequence (P08246 30-267): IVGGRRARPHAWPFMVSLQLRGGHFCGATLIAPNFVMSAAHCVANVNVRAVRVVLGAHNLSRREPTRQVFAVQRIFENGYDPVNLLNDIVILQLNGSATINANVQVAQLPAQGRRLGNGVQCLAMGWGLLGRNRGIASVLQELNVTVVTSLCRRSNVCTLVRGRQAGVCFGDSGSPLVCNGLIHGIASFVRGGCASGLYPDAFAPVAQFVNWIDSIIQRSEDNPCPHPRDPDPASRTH
Description: The in vitro assay is based upon the hydrolysis of the commercially available (Sigma Chemical Company, St. Louis, Missouri) substrate methoxy O-succinyl-L-alanyl-L-alanyl-L-prolyl-L-valine para-nitroanilide (MeO-Suc-Ala-Sla-Pro-Val-pNA) and the resulting release of p-nitroanilide (pNA), which absorbs at 405 nm.
• a. Microtiter plates (96 well, flat bottom) • b. Vmax Kinetic Microtiter Plate Reader, equipped with 405 nm filter (Molecular Devices) • c. Microtiter Plate Mixer (Fisher Scientific) • d.
• a. Human sputum elastase ( HSE ) (Elasten Products Co., Pacific, Mo.) dissolved in 1 mg/mL in 0.05 M sodium chloride and frozen (50 µL aliquots) at -20°C until used. • b. Stock solution of MeO-Suc-Ala-Ala-Pro-Val-pNA dissolved at 15 mM in dimethylsulfoxide (DMSO) and frozen (4 mL aliquots) at -20°C until used. • c. Assay buffer: 0.1 M Tris buffer, pH 7.5 containing 0.5 sodium chloride
Screening is performed in microtiter plates, using 0.5 mM substrate and monitored on a Microtiter Reader. Enzyme activity (+/- test compound) is determined as the rate of pNA release (linear regression analysis of slope). Inhibitory activity of the test compound is calculated relative to the uninhibited enzyme control, as follows: [formula]
A frozen aliquot of HSE is thawed and diluted with assay buffer to a stock concentration of 0.02 mg/mL ( 30 x assay concentration). A frozen aliquot of the substrate stock solution is thawed and diluted to 0.5 mM with the assay buffer (final DMSO concentration is […]). 10 µl of the test compound stock solution (or assay buffer) and 10 µl of the HSE stock solution are pipetted into each microtiter well, in duplicate. The plate is mixed well, and pre-incubated at room temperature for 15 minutes. A 300 µl substrate solution is then added to each well and the OD₄₀₅ is followed for approximately 30 minutes.

[3] = molecular target: Human Cathepsin B (Homo sapiens, UniProt P07858); assay: Selectivity assay: Human Cathepsin B; format: biochemical; details: IC50 of 5 or greater is considered inactive
[4] = molecular target: T3, Human Renin (Homo sapiens, UniProt P00797); assay: Selectivity assay: Human Renin; format: biochemical; details: IC50 of 5 or greater is considered inactive
T3 sequence (P00797 67-406): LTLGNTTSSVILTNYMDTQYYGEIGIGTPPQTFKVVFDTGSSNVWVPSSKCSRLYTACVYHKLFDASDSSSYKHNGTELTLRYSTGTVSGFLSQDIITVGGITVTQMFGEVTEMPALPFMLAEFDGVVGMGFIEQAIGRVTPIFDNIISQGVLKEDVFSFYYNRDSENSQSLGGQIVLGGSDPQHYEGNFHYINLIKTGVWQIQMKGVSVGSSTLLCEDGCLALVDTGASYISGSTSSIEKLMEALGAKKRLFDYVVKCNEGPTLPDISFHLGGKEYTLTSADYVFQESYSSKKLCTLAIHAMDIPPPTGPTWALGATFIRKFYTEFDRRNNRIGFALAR

[5] = molecular target: Human Urokinase (Homo sapiens, UniProt P00749); assay: Selectivity assay: Human Urokinase; format: biochemical; details: IC50 of 5 or greater is considered inactive
[6] = molecular target: T4, Human C1 Esterase (Homo sapiens, UniProt P09871); assay: Selectivity assay: Human C1 Esterase; format: biochemical; details: IC50 of 5 or greater is considered inactive
T4 sequence (P09871 16-688): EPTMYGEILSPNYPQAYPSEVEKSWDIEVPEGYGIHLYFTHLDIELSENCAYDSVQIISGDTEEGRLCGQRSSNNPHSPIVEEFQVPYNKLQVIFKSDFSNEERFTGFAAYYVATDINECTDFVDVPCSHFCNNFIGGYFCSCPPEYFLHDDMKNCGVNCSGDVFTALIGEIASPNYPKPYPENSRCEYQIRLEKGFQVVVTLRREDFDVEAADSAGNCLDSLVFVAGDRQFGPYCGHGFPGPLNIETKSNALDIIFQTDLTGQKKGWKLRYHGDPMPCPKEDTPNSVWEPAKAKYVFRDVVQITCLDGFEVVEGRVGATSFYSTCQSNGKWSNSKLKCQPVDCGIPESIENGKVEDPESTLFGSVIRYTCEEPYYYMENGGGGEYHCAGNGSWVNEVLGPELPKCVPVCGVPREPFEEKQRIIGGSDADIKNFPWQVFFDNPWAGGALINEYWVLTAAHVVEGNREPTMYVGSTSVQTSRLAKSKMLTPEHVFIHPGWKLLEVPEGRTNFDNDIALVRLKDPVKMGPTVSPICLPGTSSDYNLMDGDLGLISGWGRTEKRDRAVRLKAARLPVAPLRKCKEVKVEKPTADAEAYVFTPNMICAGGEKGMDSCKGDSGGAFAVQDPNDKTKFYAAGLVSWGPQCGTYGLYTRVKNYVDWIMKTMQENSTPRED

[7] = molecular target: T5, Human Cathepsin G (Homo sapiens, UniProt P08311); assay: Selectivity assay: Human Cathepsin G; format: biochemical; details: IC50 of 5 or greater is considered inactive
T5 sequence (P08311 21-244): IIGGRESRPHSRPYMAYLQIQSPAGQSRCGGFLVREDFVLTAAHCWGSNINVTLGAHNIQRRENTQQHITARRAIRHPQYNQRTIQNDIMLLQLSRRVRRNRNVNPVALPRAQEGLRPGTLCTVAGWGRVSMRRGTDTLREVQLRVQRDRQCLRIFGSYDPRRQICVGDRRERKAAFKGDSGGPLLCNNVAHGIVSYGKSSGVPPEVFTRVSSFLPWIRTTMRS

[8] = tested on: APTT; assay: Selectivity assay: APTT; details: IC50 of 5 or greater is considered inactive
[9] = tested on: PT; details: IC50 of 5 or greater is considered inactive
[10] = molecular target: Polio 3C - Proteinase (Poliovirus type 1, UniProt P03300); assay: biochemical
Sequence of Polio 3C - Proteinase (P03300 1566-1748 limits assumed): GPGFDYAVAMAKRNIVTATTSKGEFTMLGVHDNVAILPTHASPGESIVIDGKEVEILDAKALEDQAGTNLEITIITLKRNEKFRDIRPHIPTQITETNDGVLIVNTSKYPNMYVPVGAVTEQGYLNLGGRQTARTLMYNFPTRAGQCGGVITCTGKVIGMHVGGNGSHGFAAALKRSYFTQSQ

[11] = molecular target: Tissue Plasminogen Activator (Homo sapiens, UniProt P00750); assay: Selectivity assay: Tissue Plasminogen Activator; format: biochemical; details: IC50 of 5 or greater is considered inactive
Sequence of Tissue Plasminogen Activator (P00750 36-562): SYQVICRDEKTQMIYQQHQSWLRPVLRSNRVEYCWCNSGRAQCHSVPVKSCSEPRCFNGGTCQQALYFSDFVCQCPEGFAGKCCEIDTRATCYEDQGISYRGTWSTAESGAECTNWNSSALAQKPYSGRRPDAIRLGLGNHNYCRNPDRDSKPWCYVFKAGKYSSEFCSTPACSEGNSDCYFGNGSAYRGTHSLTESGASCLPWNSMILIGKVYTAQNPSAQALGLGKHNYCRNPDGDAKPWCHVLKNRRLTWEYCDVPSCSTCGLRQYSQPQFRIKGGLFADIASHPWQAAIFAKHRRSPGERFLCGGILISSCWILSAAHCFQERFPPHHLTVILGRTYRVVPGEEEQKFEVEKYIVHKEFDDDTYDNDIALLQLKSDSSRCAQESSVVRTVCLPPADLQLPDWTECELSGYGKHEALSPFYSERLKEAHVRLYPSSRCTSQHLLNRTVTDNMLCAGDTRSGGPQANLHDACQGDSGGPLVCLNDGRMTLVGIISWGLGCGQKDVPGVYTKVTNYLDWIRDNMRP

[12] = tested on: Total Complement; assay: Selectivity assay: Total Complement; details: IC50 of 5 or greater is considered inactive
[13] = 0 % HSA, read-out: % Inhib. (5ug/mL) 0 % HSA
[14] = 0.5 % HSA added, read-out: % Inhib. (5ug/mL) 0.5 % HSA

## CC(C)C(NC(=O)CN(C(=O)[C@@H](NC(=O)c1ccc(C(=O)NS(=O)(=O)c2ccc(Cl)cc2)cc1)C(C)C)C1CCCC1)C(=O)C(F)(F)F (single isomer, unassigned) [Cyclopentyl, p-[p-Cl(C6H4)SO2NHCO](C6H4)CO - (Diastereomer of Above), [[4-(4-Chlorophenyl)sulfonylaminocarbonyl]phenyl-1-oxomethyl]-L-Valyl-N-cyclopentyl-glycyl-N-[3-(1,1,1-trifluoro-4-methyl-2-oxypentyl)]amide]
[1]
  % Inhib. (20 ug. i.t.): 99.0%
[2]; [13]
  inhibition at 5 µg/mL: 99.8%
[2]; [14]
  inhibition at 5 µg/mL: 99.7%

## CC(C)C(NC(=O)CN(C(=O)[C@@H](NC(=O)c1ccc(C(=O)NS(=O)(=O)c2ccc(Cl)cc2)cc1)C(C)C)C1CCCC1)C(=O)C(F)(F)F (single isomer, unassigned) [[[4-(4-Chlorophenyl)sulfonylaminocarbonyl]phenyl-1-oxomethyl]-L-Valyl-N-cyclopentyl-glycyl-N-[3-(1,1,1-trifluoro-4-methyl-2-oxypentyl)]amide]
[1]
  % Inhib. (20 ug. i.t.): 99.2%
[2]; [13]
  inhibition at 5 µg/mL: 100%
[2]; [14]
  inhibition at 5 µg/mL: 99.8%
[2]; Table I, read-out: IC50 (converted)
  IC50: 0.113 µM and 0.0923 µM

## COc1ccc(CCN(CC(=O)NC(C(=O)C(F)(F)F)C(C)C)C(=O)[C@@H](NC(=O)OCc2ccccc2)C(C)C)cc1OC (stereo partly shown) [3,4 - Dimethoxyphenethyl, CBZ]
[2]; [13]
  inhibition at 5 µg/mL: 95.1%
[2]; [14]
  inhibition at 5 µg/mL: 87.8%
[2]; Table I
  IC50: 0.432 µg/mL

## CC(C)C(NC(=O)CN(C(=O)[C@@H](NC(=O)c1ccc(C(=O)NS(=O)(=O)c2ccc(Cl)cc2)cc1)C(C)C)C1Cc2ccccc2C1)C(=O)C(F)(F)F (stereo partly shown) [Compound of Table III]
[3]
  IC50: > 6.55 µM
[4]
  IC50: > 6.55 µM
[5]
  IC50: > 6.55 µM
[6]
  IC50: > 6.55 µM
[7]
  IC50: > 9.17 µM
[8]
  IC50: >> 100 ug/mL
[9]
  IC50: >> 100 ug/mL
[10]
  IC50: > 82.5 µM
[11]
  IC50: > 6.55 µM
[12]
  IC50: >> 100 ug/mL

## CC(C)C(NC(=O)CN(C(=O)[C@@H](NC(=O)OCc1ccccc1)C(C)C)C1CCCC1)C(=O)C(F)(F)F (stereo partly shown) [Cyclopentyl, CBZ]
[2]; [13]
  inhibition at 5 µg/mL: 100%
[2]; [14]
  inhibition at 5 µg/mL: 99.4%
[2]; Table I
  IC50: 0.082 µg/mL

## COc1ccc(CCN(CC(=O)NC(C(=O)C(F)(F)F)C(C)C)C(=O)[C@@H](NC(=O)c2ccc(C(=O)NS(=O)(=O)c3ccc(Cl)cc3)cc2)C(C)C)cc1OC (stereo partly drawn) [[(4-(4-Chlorophenyl)sulfonylaminocarbonyl]phenyl-1-oxomethyl]-L-Valyl-N-[2-(3,4-dimethoxy)phenethyl] glycyl-N-[3-(1,1,1-trifluoro-4-methyl-2-oxypentyl)] amide]
[1]
  % Inhib. (20 ug. i.t.): 90.2%
[2]; [13]
  inhibition at 5 µg/mL: 98.8%
[2]; [14]
  inhibition at 5 µg/mL: 96.3%
[2]; IC50, Table I
  IC50: 0.103 µM

## CC(C)C(NC(=O)CN(C(=O)[C@@H](NC(=O)c1ccc(C(=O)NS(=O)(=O)c2ccc(Cl)cc2)cc1)C(C)C)C1CC2CCC1C2)C(=O)C(F)(F)F (stereo partly drawn) [[[4-(4-Chlorophenyl)sulfonylaminocarbonyl]phenyl-1-oxomethyl]-L-Valyl-N-(exo-bicyclo[2,2,1]hept-2-yl)glycyl-N-[3-(1,1,1-trifluoro-4-methyl-2-oxypentyl)]amide]
[1]
  % Inhib. (20 ug. i.t.): 93.8%
[2]; [13]
  inhibition at 5 µg/mL: 99.8%
[2]; [14]
  inhibition at 5 µg/mL: 99.5%
[2]; Table I
  IC50: 0.045 µg/mL
